Here are results for 2 molecules from patent publication US12714722B2, “Cancer combination therapies utilizing a nicotinamide phosphoribosyltransferase inhibitor in combination with a nicotinamide adenine dinucleotide salvage pathway precursor” (Fred Hutchinson Cancer Center, priority 2019, dated 2026).

One data set has as its system CB660. Kind of data set: Cell viability (Cell-Titer-Glo), FK866 with or without NMN, in NSC-CB660. It counts as cell-based, human. Details: key: +: indicates similar viability compared to parental cells in ″No drug control″; −: indicates significantly diminished viability (as determined by Student's t-test). Particulars: CB660 cells; FK-866 alone or with NMN.
The test system of another data set is GSC 0131. Briefly: Cell viability, FK866 with or without NMN, in GSC 0131. It is filed as cell-based, human. On the set-up: key to viability compared to No drug control: +: indicates similar viability compared to parental cells in ″No drug control″; −: indicates significantly diminished viability (as determined by Student's t-test).
The test system of the next data set is GSC 0131 NMRK1 KO. Kind of data set: Cell viability, FK866 with or without NMN, in GSC 0131 with NMRK1 knockout. It counts as cell-based, human. On the set-up: key to viability compared to No drug control: +: indicates similar viability compared to parental cells in ″No drug control″; −: indicates significantly diminished viability (as determined by Student's t-test). As to the method:
(§1) Methods. Cell culture. NSC and GSC lines were grown in NeuroCult NS-A basal medium (StemCell Technologies) supplemented with B27 (Thermo Fisher), N2 (2× stock in Advanced DMEM/F-12 (Fisher) with 25 μg/mL insulin (Sigma), 100 μg/mL apo-Transferrin (Sigma), 6 ng/mL progesterone (Sigma), 16 μg/mL putrescine (Sigma), 30 nM sodium selenite (Sigma), and 50 μg/mL bovine serum albumin (Sigma), and EGF and FGF-2 (20 ng/mL each) (Peprotech) on laminin (Sigma or Trevigen) coated polystyrene plates and passaged according to previously published protocols (Pollard et al., Cell Stem Cell. 2009; 4(6):568-80). Cells were detached from their plates using Accutase (Thermo Fisher). 293T (ATCC) cells were grown in 10% FBS/DMEM (Invitrogen).
(§2) In addition, knockout of NMRK1 in GSC 0131 cells should replicate the effect of FK866 seen in GSC 0827 cells.
NMRK1 knockout. Using nucleofection (4D-Nucleofector; Amaxa) in combination with Cas9:sgRNA complexes (Synthego). Using the Synthego prediction software, 3 synthetic sgRNA guides were generated to give indel formation within the NMRK1 transcript.
Synthetic guides were mixed with recombinant cas9 and nucleofected using an Amaxa 96-well nucleofection system. Indel formation was highest with guides 1 and 2, and lowest with guide 3. Combining guides 1 and 2 yielded >90% indel formation. […]

Another data set relates to GSC 0827. Briefly: Cell viability, FK866 with or without NMN, in GSC 0827 (NMRK1 low). It is filed as cell-based, human. Details: key to viability compared to No drug control: +: indicates similar viability compared to parental cells in ″No drug control″; −: indicates significantly diminished viability (as determined by Student's t-test). Particulars: for rescue of FK866-treated cells with NMN: GSC-0827 cells, in the presence of FK866. As to the method: as §1
Metabolic inhibitors screen protocol and data analysis. 230 metabolic inhibitors were screened in GSC lines (0131 and 827) and NSC CB660 cell line grown in 96-well optical bottom plates. After 24 hours, inhibitors were diluted in cell media and added to plated cells. Inhibitor concentration was based on IC 50 for the target enzymes, with 1× being the IC50 0.25× being the lower concentration and 5× being the higher concentration. Each concentration was tested in triplicate. After 48 hours, cell viability was measured via Cell-Titer-Glo. A z-score was established for each compound concentration, based on Untreated and Puromycin treated cells. Positive candidates were defined as compounds with a z-score less than that of CB660 cells. Positive candidates were rescreened to verify results.
NMN and NR Complementation studies. To verify if selectivity of NAMPT inhibition relied on downregulation of salvaging pathways, 827 cells were tested on cell viability in the presence of FK866 and the addition of NMN.

Another data set deals with GSC 0827 + NMRK1. Briefly: Cell viability, FK866 with or without NMN, in GSC 0827 ectopically expressing NMRK1. It counts as cell-based, human. On the set-up: key to viability compared to No drug control: +: indicates similar viability compared to parental cells in ″No drug control″; −: indicates significantly diminished viability (as determined by Student's t-test). On the procedure: as §1, §2
Cloning of NMRK1 ORF and NMRK1 complementation studies. […] This could be used as negative control for transfection purposes.
NMRK1 was then synthesized as a g-block based on HEK293T genomic DNA sequence:
Insertion of the purified product into vector was accomplished via Gibson assembly using NEB HiFi DNA Assembly Master Mix Kit with BamHI pre-cut pLX304 vector for expression in GBM cell lines.
Once cloned into the pLX304 backbone, the NMRK1 expressing plasmid was prepared for nucleofection and introduced into GBM 0827 cell lines. […]

Data set [1] has as its system GSCs (0131 and 0827) and control hNPC-CB660 cells. Briefly: Metabolic inhibitor library screen and retest, GSCs versus control neural stem cells. It is filed as cell-based, human. Particulars: 48 hrs; Cell titerglo assay; n=3. On the procedure: Example 1. To Identify New Metabolic Vulnerabilities in Human GSCs, a Chemical Library screen was performed using […] inhibitors of metabolic enzymes in two GSCs (0131 and 0827) and control hNPC-CB660 cells. […] To further explore this phenotype, an NAD salvage substrate, NMN was used, to bypass the requirement for NAMPT and rescue cytotoxicity. NMN is a substrate for the ectoenzyme CD73 (Ratajczak J et al., Nature communications. 2016; 7:13103), which generates NR, which is transported intracellular by equilibrative nucleoside transporters. (Nikiforov et al., J Biol Chem. 2011; 286(24):21767-78.) Intracellular NR is phosphorylated by NMRK in a NAMPT-independent NAD salvage pathway.
Methods. Cell culture. […]
Metabolic inhibitors screen protocol and data analysis. […] After 48 hours, cell viability was measured via Cell-Titer-Glo. […]
A general note: In ATP-based viability assays light output follows the ATP content of the culture.

The conditions of data set [2]: cited from earlier work.

Molecules are shown by their SMILES. “Also recorded” adds a separate entry of the source.

For the molecule `O=C(/C=C/c1cccnc1)NCCCCC1CCN(C(=O)c2ccccc2)CC1` [FK866, (E)-N-[4-(1-benzoyl-4-yl)-butyl]-3-(pyridin-3-yl) acrylamide], the “viability compared to No drug control” value is reported as “+” in the data set with CB660; “−” in the data set with GSC 0131 (GSC 0131 cells, FK-866 alone or with NMN); “−” in the data set with GSC 0131 NMRK1 KO (GSC 0131 NMRK1 KO cells, FK-866 alone or with NMN); “−” in the data set on GSC 0827 (GSC 0827 cells, FK-866 alone or with NMN); “−” with GSC 0827 + NMRK1 (GSC 0827 + NMRK1 cells, FK-866 alone or with NMN). Moreover, the “rescue of FK866-treated cells with NMN” value in the data set with GSC 0827 is recorded as “remained exquisitely sensitive; also recorded: cannot be overcome”. Further, in data set [1], the “selectivity of cytotoxicity for GSCs over neural stem cells” value is “GSC-selective cytotoxicity; also recorded: GSC and transformation specificity”. Further, in data set [2], the “toxicity in clinical trials” value was “dose-limiting toxicities”.
Regarding `NC(=O)c1ccc[n+]([C@@H]2O[C@H](COP(=O)([O-])O)[C@@H](O)[C@H]2O)c1` [NMN, nicotinamide mononucleotide], the “rescue of FK866-treated cells with NMN” value with GSC 0131 (GSC-0131 cells, in the presence of FK866) was “could be rescued; also recorded: sufficient to rescue; also recorded: can be complemented”; with GSC 0131 NMRK1 KO (GSC-0131 cells with NMRK1 knockout, in the presence of FK866), “rescue was prevented”; in the data set on GSC 0827, “not”; in the data set on GSC 0827 + NMRK1 (GSC-0827 cells with ectopic NMRK1 expression, in the presence of FK866), “sufficient to rescue; also recorded: demonstrated rescue; also recorded: allows utilization”.
